In patent US20200231614A1, “PSMA TARGETED RADIOHALOGENATED UREAS FOR CANCER RADIOTHERAPY” (THE JOHNS HOPKINS UNIVERSITY, priority 2015, published 2020):
Where two headings read alike, the source gives them in different places.

System: PSMA + PC-3 PiP and PSMA − PC-3 flu tumor xenografts
Settings: for Biodistribution: PC-3 PiP: PSMA+ tumor xenograft; for Biodistribution: PC-3 flu: PSMA− tumor xenograft

In the case of `N=C(N)NCc1ccc(C(=O)NCCCCC(NC(=O)CCCCCCC(=O)NCCCC[C@H](NC(=O)N[C@@H](CCC(=O)O)C(=O)O)C(=O)O)C(=O)O)cc1[211At]` (stereo partly drawn) [[^211At] labeled PSMA-904], the “Biodistribution: Lrg Int.” value (1 H post-injection) is reported as 0.75 ± 0.98 % ID/g, the “Biodistribution: Sm int.” value (1 H post-injection) is reported as 33.9 ± 5.49 % ID/g and the “Biodistribution: bladder” value (1 H post-injection) is reported as 1.17 ± 0.20 % ID/g. For the same compound, the “Biodistribution: blood” value (1 H post-injection) was 0.65 ± 0.33 % ID/g, the “Biodistribution: heart” value (1 H post-injection) was 0.84 ± 0.27 % ID/g and the “Biodistribution: kidney” value (1 H post-injection) was 86.5 ± 15.5 % ID/g. For the same compound, the “Biodistribution: liver” value (1 H post-injection) was 5.11 ± 4.13 % ID/g, the “Biodistribution: lung” value (1 H post-injection) was 2.24 ± 0.51 % ID/g and the “Biodistribution: muscle” value (1 H post-injection) was 0.38 ± 0.16 % ID/g. The “Biodistribution: spleen” value (1 H post-injection) was 9.51 ± 2.76 % ID/g, the “Biodistribution: stomach” value (1 H post-injection) was 1.64 ± 0.62 % ID/g and the “Biodistribution: thyroid” value (1 H post-injection) was 0.51 ± 0.16 % ID/g. For the same compound, the “Biodistribution: Lrg Int.” value (2 H post-injection) was 26.7 ± 15.3 % ID/g, the “Biodistribution: Sm int.” value (2 H post-injection) was 13.8 ± 10.9 % ID/g and the “Biodistribution: bladder” value (2 H post-injection) was 1.30 ± 0.24 % ID/g. For the same compound, the “Biodistribution: blood” value (2 H post-injection) was 0.35 ± 0.03 % ID/g, the “Biodistribution: heart” value (2 H post-injection) was 0.76 ± 0.11 % ID/g and the “Biodistribution: kidney” value (2 H post-injection) was 87.7 ± 11.0 % ID/g. The “Biodistribution: liver” value (2 H post-injection) was 3.80 ± 2.39 % ID/g, the “Biodistribution: lung” value (2 H post-injection) was 1.96 ± 0.26 % ID/g and the “Biodistribution: muscle” value (2 H post-injection) was 0.21 ± 0.03 % ID/g. The “Biodistribution: spleen” value (2 H post-injection) was 4.31 ± 1.96 % ID/g, the “Biodistribution: stomach” value (2 H post-injection) was 2.86 ± 0.67 % ID/g and the “Biodistribution: thyroid” value (2 H post-injection) was 1.03 ± 0.26 % ID/g. The “Biodistribution: Lrg Int.” value (21 H post-injection) was 8.55 ± 5.07 % ID/g, the “Biodistribution: Sm int.” value (21 H post-injection) was 1.51 ± 0.91 % ID/g and the “Biodistribution: bladder” value (21 H post-injection) was 1.99 ± 0.54 % ID/g. The “Biodistribution: blood” value (21 H post-injection) was 0.48 ± 0.13 % ID/g, the “Biodistribution: heart” value (21 H post-injection) was 1.12 ± 0.27 % ID/g and the “Biodistribution: kidney” value (21 H post-injection) was 4.38 ± 3.46 % ID/g. For the same compound, the “Biodistribution: liver” value (21 H post-injection) was 0.59 ± 0.21 % ID/g, the “Biodistribution: lung” value (21 H post-injection) was 2.89 ± 0.93 % ID/g and the “Biodistribution: muscle” value (21 H post-injection) was 0.22 ± 0.06 % ID/g. The “Biodistribution: spleen” value (21 H post-injection) was 2.07 ± 0.68 % ID/g, the “Biodistribution: stomach” value (21 H post-injection) was 9.36 ± 2.18 % ID/g and the “Biodistribution: thyroid” value (21 H post-injection) was 3.74 ± 1.42 % ID/g. For the same compound, the “Biodistribution: PC-3 PiP” value (1 H post-injection) was 22.7 ± 5.42 % ID/g, the “Biodistribution: PC-3 PiP” value (2 H post-injection) was 21.1 ± 6.16 % ID/g and the “Biodistribution: PC-3 PiP” value (21 H post-injection) was 12.1 ± 5.03 % ID/g. For the same compound, the “Biodistribution: PC-3 flu” value (1 H post-injection) was 0.80 ± 0.30 % ID/g, the “Biodistribution: PC-3 flu” value (2 H post-injection) was 0.52 ± 0.05 % ID/g and the “Biodistribution: PC-3 flu” value (21 H post-injection) was 0.84 ± 0.23 % ID/g.

In the case of `N=C(N)NCc1ccc(C(=O)NCCCCC(NC(=O)CCCCCCC(=O)NCCCC[C@H](NC(=O)N[C@@H](CCC(=O)O)C(=O)O)C(=O)O)C(=O)O)cc1[131I]` (stereo partly drawn) [[^131I] labeled PSMA-904], the “Biodistribution: Lrg Int.” value (1 H post-injection) is reported as 0.50 ± 0.65 % ID/g, the “Biodistribution: Sm int.” value (1 H post-injection) is reported as 33.81 ± 6.36 % ID/g and the “Biodistribution: bladder” value (1 H post-injection) is reported as 0.71 ± 0.23 % ID/g. The “Biodistribution: blood” value (1 H post-injection) was 0.46 ± 0.17 % ID/g, the “Biodistribution: heart” value (1 H post-injection) was 0.46 ± 0.18 % ID/g and the “Biodistribution: kidney” value (1 H post-injection) was 121 ± 23.8 % ID/g. For the same compound, the “Biodistribution: liver” value (1 H post-injection) was 5.16 ± 3.81 % ID/g, the “Biodistribution: lung” value (1 H post-injection) was 1.39 ± 0.36 % ID/g and the “Biodistribution: muscle” value (1 H post-injection) was 0.31 ± 0.14 % ID/g. The “Biodistribution: spleen” value (1 H post-injection) was 9.83 ± 3.28 % ID/g, the “Biodistribution: stomach” value (1 H post-injection) was 0.73 ± 0.26 % ID/g and the “Biodistribution: thyroid” value (1 H post-injection) was 0.11 ± 0.13 % ID/g. For the same compound, the “Biodistribution: Lrg Int.” value (2 H post-injection) was 21.3 ± 15.9 % ID/g, the “Biodistribution: Sm int.” value (2 H post-injection) was 14.2 ± 12.0 % ID/g and the “Biodistribution: bladder” value (2 H post-injection) was 0.64 ± 0.25 % ID/g. For the same compound, the “Biodistribution: blood” value (2 H post-injection) was 0.18 ± 0.07 % ID/g, the “Biodistribution: heart” value (2 H post-injection) was 0.27 ± 0.14 % ID/g and the “Biodistribution: kidney” value (2 H post-injection) was 110 ± 37.2 % ID/g. For the same compound, the “Biodistribution: liver” value (2 H post-injection) was 3.48 ± 2.35 % ID/g, the “Biodistribution: lung” value (2 H post-injection) was 0.81 ± 0.37 % ID/g and the “Biodistribution: muscle” value (2 H post-injection) was 0.13 ± 0.03 % ID/g. The “Biodistribution: spleen” value (2 H post-injection) was 3.41 ± 2.01 % ID/g, the “Biodistribution: stomach” value (2 H post-injection) was 1.03 ± 0.62 % ID/g and the “Biodistribution: thyroid” value (2 H post-injection) was 0.31 ± 0.23 % ID/g. The “Biodistribution: Lrg Int.” value (21 H post-injection) was 14.5 ± 8.08 % ID/g, the “Biodistribution: Sm int.” value (21 H post-injection) was 0.87 ± 0.92 % ID/g and the “Biodistribution: bladder” value (21 H post-injection) was 0.07 ± 0.09 % ID/g. The “Biodistribution: blood” value (21 H post-injection) was 0.02 ± 0.01 % ID/g, the “Biodistribution: heart” value (21 H post-injection) was 0.02 ± 0.01 % ID/g and the “Biodistribution: kidney” value (21 H post-injection) was 3.03 ± 2.96 % ID/g. For the same compound, the “Biodistribution: liver” value (21 H post-injection) was 0.24 ± 0.39 % ID/g, the “Biodistribution: lung” value (21 H post-injection) was 0.03 ± 0.01 % ID/g and the “Biodistribution: muscle” value (21 H post-injection) was 0.03 ± 0.02 % ID/g. For the same compound, the “Biodistribution: spleen” value (21 H post-injection) was 0.16 ± 0.07 % ID/g, the “Biodistribution: stomach” value (21 H post-injection) was 1.98 ± 3.10 % ID/g and the “Biodistribution: thyroid” value (21 H post-injection) was 0.42 ± 0.35 % ID/g. The “Biodistribution: PC-3 PiP” value (1 H post-injection) was 27.6 ± 7.59 % ID/g, the “Biodistribution: PC-3 PiP” value (2 H post-injection) was 24.7 ± 9.77 % ID/g and the “Biodistribution: PC-3 PiP” value (21 H post-injection) was 19.2 ± 7.28 % ID/g. The “Biodistribution: PC-3 flu” value (1 H post-injection) was 0.49 ± 0.23 % ID/g, the “Biodistribution: PC-3 flu” value (2 H post-injection) was 0.22 ± 0.06 % ID/g and the “Biodistribution: PC-3 flu” value (21 H post-injection) was 0.02 ± 0.01 % ID/g.
